Assay results as given in patent US20160083391A1, “TRICYCLIC PIPERAZINE DERIVATIVE” (Sunovion Pharmaceuticals Inc., priority 2014, published 2016).

Tested on: PDE1
Assay: In vitro HTRF PDE1 inhibition assay
Type: biochemical
Details: HTRF cGMP assay, 100 nM cyclic GMP, PDE (1A3, 1B or 1C) with calmodulin, 45 minutes at 37° C.; isoform of the tabulated values not stated
Excerpt: An exemplary procedure for the in vitro Homogenous Time Resolved Fluorescence assay, which can be used to determine the inhibitory action of compounds of the invention toward. PDE1 or its isoforms, follows.
The HTRF PDE1 assay utilized the HTRF (Homogenous Time Resolved Fluorescence) technology, which is based on the competition between unlabeled cyclic nucleotide and cyclic nucleotide labeled with XL665 for the binding to cyclic nucleotide-specific antibody labeled with cryptate. The HTRF signal is thus inversely proportional to the concentration of cyclic nucleotide being measured. Since phosphodiesterases break down cyclic nucleotides the HTRF signal was used to determine PDE activity.
The Cisbio cGMP HTRF assay kit (Cat no: 62GM2PEC) was utilized. Cyclic GMP was diluted to 200 nM in HTRF assay buffer (1 mM CaCl2, 10 mM MgCl2, 10 mM Tris-HCl, 0.1% BSA, pH7.4). 10 μl of compound or DMSO was diluted in 200 nM cyclic GMP solution and added to wells of a 96 well white plate to give 100 nM cyclic GMP in 1% DMSO final concentration. PDE (1A3, 1B or 1C) was diluted to 2× working concentration in HTRF assay buffer with […] Calmodulin, and 10 μl was added to initiate the reaction. The plate was then incubated for 45 minutes at 37° C. d2-Labelled cyclic GMP and anti-cGMP cryptate were diluted in 50 mM phosphate buffer, 0.8M KF, 1% Triton X100, 0.2% BSA, pH7.0. Following incubation 10 μl d2-cGMP, then 10 μl anti cGMP cryptate were added to each well and the plate was incubated for 45 minutes at room temperature. The plate was then read on Perkin Elmer Victor at 2 different FRET readings ex/emm 340 nm/665 nm and 340 nm/615 nm.
Compounds having an IC50 of <1 μM, are denoted as +++. Compounds having an IC50 of 1-10 μM, are denoted as ++. Compounds having an IC50 of >10 μM, are denoted as +.

SMILES | IC50 [µM]
O=c1c2cnn(C3CCCC3)c2nc2n1CCN(Cc1ccccc1)C2 [Compound I-52, 8-Benzyl-1-cyclopentyl-6,7,8,9-tetrahydropyrazino[1,2-a]pyrazolo[3,4-d]pyrimidin-4(1H)-one] | 1 to 10
O=c1c2ncn(C3CCCC3)c2nc2n1CCN(Cc1ccc(Cl)cc1)C2 [Compound I-126, 6-(4-Chlorobenzyl)-3-cyclopentyl-5,6,7,8-tetrahydropyrazino[1,2-a]purin-10(3H)-one] | > 10
CC1NCCn2c1nc1c(cnn1-c1ccccc1)c2=O (racemic) [Compound I-5, (±)-9-Methyl-1-phenyl-6,7,8,9-tetrahydropyrazino[1,2-a]pyrazolo[3,4-d]pyrimidin-4(1H)-one] | > 10
CC(C)c1nn(C)c2c(=O)n3c(nc12)C(C)N(Cc1ccccc1)CC3 (racemic) [Compound I-47, (±)-6-Benzyl-3-isopropyl-1,5-dimethyl-5,6,7,8-tetrahydropyrazino[1,2-a]pyrazolo[4,3-d]pyrimidin-10(1H)-one] | > 10
CC(C)CC1c2nc3c(cnn3C(C)C)c(=O)n2CCN1Cc1ccccc1 (racemic) [Compound I-56, (±)-8-benzyl-9-isobutyl-1-isopropyl-6,7,8,9-tetrahydropyrazino[1,2-a]pyrazolo[3,4-d]pyrimidin-4(1H)-one] | 1 to 10
COc1cccc(CN2CCn3c(nc4c(cnn4CC(C)C)c3=O)C2)c1 [Compound I-80, 1-Isobutyl-8-(3-methoxybenzyl)-6,7,8,9-tetrahydropyrazino[1,2-a]pyrazolo[3,4-d]pyrimidin-4(1H)-one] | 1 to 10
CC(C)c1n[nH]c2c(=O)n3c(nc12)CN(Cc1ccccc1)CC3 [Compound I-43, 6-Benzyl-3-isopropyl-5,6,7,8-tetrahydropyrazino[1,2-a]pyrazolo[4,3-d]pyrimidin-10(1H)-one] | > 10
COCCn1ncc2c(=O)n3c(nc21)CN(Cc1ccc(Cl)c(Cl)c1)CC3 [Compound I-160, 8-(3,4-Dichlorobenzyl)-1-(2-methoxyethyl)-6,7,8,9-tetrahydropyrazino[1,2-a]pyrazolo[3,4-d]pyrimidin-4(1H)-one] | > 10
CC(C)Cn1ncc2c(=O)n3c(nc21)CN(Cc1ccccc1Cl)CC3 [Compound I-68, 8-(2-Chlorobenzyl)-1-isobutyl-6,7,8,9-tetrahydropyrazino[1,2-a]pyrazolo[3,4-d]pyrimidin-4(1H)-one] | 1 to 10
CC1Cn2c(nc3c(cnn3C(C)C)c2=O)CN1Cc1ccccc1 (racemic) [Compound I-105, (±)-8-Benzyl-1-isopropyl-7-methyl-6,7,8,9-tetrahydropyrazino[1,2-a]pyrazolo[3,4-d]pyrimidin-4(1H)-one] | < 1
CC(C)n1ncc2c(=O)n3c(nc21)CNC(c1ccccc1)C3 (racemic) [Compound I-106, (±)-1-isopropyl-7-phenyl-6,7,8,9-tetrahydropyrazino[1,2-a]pyrazolo[3,4-d]pyrimidin-4(1H)-one] | > 10
O=c1c2cnn(C3CCCC3)c2nc2n1CCN(Cc1cccc(Cl)c1)C2 [Compound I-72, 8-(3-Chlorobenzyl)-1-cyclopentyl-6,7,8,9-tetrahydropyrazino[1,2-a]pyrazolo[3,4-d]pyrimidin-4(1H)-one] | < 1
CC(C)n1ncc2c(=O)n3c(nc21)C(Cc1ccccc1)N(Cc1ccccc1)CC3 (racemic) [Compound I-36, (±)-8,9-Dibenzyl-1-Isopropyl-6,7,8,9-tetrahydropyrazino[1,2-a]pyrazolo[3,4-d]pyrimidin-4(1H)-one] | > 10
O=c1c2cn[nH]c2nc2n1CCN(Cc1ccccc1)C2Cc1ccccc1 (racemic) [Compound I-34, (±)-8,9-Dibenzyl-6,7,8,9-tetrahydropyrazino[1,2-a]pyrazolo[3,4-d]pyrimidin-4(1H)-one] | > 10
O=c1c2cnn(C3CC3)c2nc2n1CCN(Cc1ccccc1)C2 [Compound I-53, 8-Benzyl-1-cyclopropyl-6,7,8,9-tetrahydropyrazino[1,2-a]pyrazolo[3,4-d]pyrimidin-4(1H)-one] | > 10
CC(C)n1ncc2c(=O)n3c(nc21)CN(Cc1ccccc1)CC3 [Compound I-29, 8-Benzyl-1-isopropyl-6,7,8,9-tetrahydropyrazino[1,2-a]pyrazolo[3,4-d]pyrimidin-4(1H)-one] | 1 to 10
COc1ccc(C(=O)N2CCn3c(nc4c(cnn4C4CCCC4)c3=O)C2)cc1 [Compound I-116, 1-Cyclopentyl-8-(4-methoxybenzoyl)-6,7,8,9-tetrahydropyrazino[1,2-a]pyrazolo[3,4-d]pyrimidin-4(1H)-one] | < 1
Cn1ncc2c(=O)n3c(nc21)CN(Cc1ccccc1)CC3 [Compound I-28, 8-Benzyl-1-methyl-6,7,8,9-tetrahydropyrazino[1,2-a]pyrazolo[3,4-d]pyrimidin-4(1H)-one] | > 10
Cc1nn(C2CCCC2)c2nc3n(c(=O)c12)CCN(Cc1ccc(Cl)cc1)C3 [Compound I-111, 8-(4-Chlorobenzyl)-1-cyclopentyl-3-methyl-6,7,8,9-tetrahydropyrazino[1,2-d]pyrazolo[3,4-d]pyrimidin-4(1H)-one] | > 10
CC(C)c1n[nH]c2c(=O)n3c(nc12)CNCC3 [Compound I-10, 3-Isopropyl-5,6,7,8-tetrahydropyrazino[1,2-a]pyrazolo[4,3-a]pyrimidin-10(1H)-one] | > 10
O=c1c2nnc(C3CCCC3)n2nc2n1CCN(Cc1ccc(Cl)cc1)C2 [Compound I-132, 7-(4-Chlorobenzyl)-3-cyclopentyl-8,9-dihydro-6H-pyrazino[2,1-c][1,2,4]triazolo[3,4-f][1,2,4]triazin-11(7H)-one] | < 1

Results, then the molecule that gave them:

IC50 [µM] | SMILES
< 1 | CC(C)n1ncc2c(=O)n3c(nc21)CN(c1ccc(Cl)c(Cl)c1)CC3 [Compound I-171, 8-(3,4-Dichlorophenyl)-1-isopropyl-6,7,8,9-tetrahydropyrazino[1,2-a]pyrazolo[3,4-d]pyrimidin-4(1H)-one]
< 1 | COc1cccc(N2CCn3c(nn4c(C(C)C)ncc4c3=O)C2)c1 [Compound I-174, 3-Isopropyl-7-(3-methoxyphenyl)-8,9-dihydro-6H-imidazo[5,1-f]pyrazino[2,1-c][1,2,4]triazin-11(7H)-one]
< 1 | COc1cccc(N2CCn3c(nn4c(C5CCCC5)ncc4c3=O)C2)c1 [Compound I-181, 3-Cyclopentyl-7-(3-methoxyphenyl)-8,9-dihydro-6H-imidazo[5,1-f]pyrazino[2,1-c][1,2,4]triazin-11(7H)-one]
< 1 | O=c1c2cnc(C3CCC3)n2nc2n1CCN(c1ccc(Cl)cc1)C2 [Compound I-249, 7-(4-Chlorophenyl)-3-cyclobutyl-8,9-dihydro-6H-imidazo[5,1-f]pyrazino[2,1-c][1,2,4]triazin-11(7H)-one]
1 to 10 | COCCn1ncc2c(=O)n3c(nc21)CN(c1ccc(Cl)cc1)CC3 [Compound I-256, 8-(4-Chlorophenyl)-1-(2-methoxyethyl)-6,7,8,9-tetrahydropyrazino[1,2-a]pyrazolo[3,4-d]pyrimidin-4(1H)-one]
> 10 | COCCn1ncc2c(=O)n3c(nc21)CN(Cc1ccc2c(c1)OCO2)CC3 [Compound I-163, 8-(Benzo[d][1.3]dioxol-5-ylmethyl)-1-(2-methoxyethyl)-6,7,8,9-tetrahydropyrazino[1,2-a]pyrazolo[3,4-d]pyrimidin-4(1H)-one]
< 1 | CC(C)Cc1nnc2c(=O)n3c(nn12)CN(Cc1ccc(Cl)cc1)CC3 [Compound I-215, 7-(4-Chlorobenzyl)-3-isobutyl-8,9-dihydro-6H-pyrazino[2,1-c][1,2,4]triazolo[3,4-f][1,2,4]triazin-11(7H)-one]
1 to 10 | Cc1cnc(CN2CCn3c(nn4c(C(C)C)ncc4c3=O)C2)cn1 [Compound I-208, 3-Isopropyl-7-((5-methylpyrazin-2-yl)methyl)-8,9-dihydro-6H-imidazo[5,1-f]pyrazino[2,1-c][1,2,4]triazin-11(7H)-one]
< 1 | O=c1n2c(nc3c(C4CCCC4)ncn13)CN(Cc1ccc(Cl)cc1)CC2 [Compound I-258, 6-(4-Chlorobenzyl)-3-cyclopentyl-7,8-dihydro-5H-imidazo[1,5-a]pyrazino[2,1-d][1,3,5]triazin-10(6H)-one]
< 1 | O=c1c2cnn(C3CC3)c2nc2n1CCN(c1ccc(Cl)cc1)C2 [Compound I-248, 8-(4-Chlorophenyl)-1-cyclopropyl-6,7,8,9-tetrahydropyrazino[1,2-a]pyrazolo[3,4-d]pyrimidin-4(1H)-one]
< 1 | O=c1c2cnc(C3CCCC3)n2nc2n1CCN(c1ccc(Cl)cc1)C2 [Compound I-182, 7-(4-Chlorophenyl)-3-cyclopentyl-8,9-dihydro-6H-imidazo[5,1-f]pyrazino[2,1-c][1,2,4]triazin-11(7H)-one]
